The target in one experiment is T1, Protein O-GlcNAcase (Homo sapiens, UniProt O60502).
T1 sequence (O60502 whole entry): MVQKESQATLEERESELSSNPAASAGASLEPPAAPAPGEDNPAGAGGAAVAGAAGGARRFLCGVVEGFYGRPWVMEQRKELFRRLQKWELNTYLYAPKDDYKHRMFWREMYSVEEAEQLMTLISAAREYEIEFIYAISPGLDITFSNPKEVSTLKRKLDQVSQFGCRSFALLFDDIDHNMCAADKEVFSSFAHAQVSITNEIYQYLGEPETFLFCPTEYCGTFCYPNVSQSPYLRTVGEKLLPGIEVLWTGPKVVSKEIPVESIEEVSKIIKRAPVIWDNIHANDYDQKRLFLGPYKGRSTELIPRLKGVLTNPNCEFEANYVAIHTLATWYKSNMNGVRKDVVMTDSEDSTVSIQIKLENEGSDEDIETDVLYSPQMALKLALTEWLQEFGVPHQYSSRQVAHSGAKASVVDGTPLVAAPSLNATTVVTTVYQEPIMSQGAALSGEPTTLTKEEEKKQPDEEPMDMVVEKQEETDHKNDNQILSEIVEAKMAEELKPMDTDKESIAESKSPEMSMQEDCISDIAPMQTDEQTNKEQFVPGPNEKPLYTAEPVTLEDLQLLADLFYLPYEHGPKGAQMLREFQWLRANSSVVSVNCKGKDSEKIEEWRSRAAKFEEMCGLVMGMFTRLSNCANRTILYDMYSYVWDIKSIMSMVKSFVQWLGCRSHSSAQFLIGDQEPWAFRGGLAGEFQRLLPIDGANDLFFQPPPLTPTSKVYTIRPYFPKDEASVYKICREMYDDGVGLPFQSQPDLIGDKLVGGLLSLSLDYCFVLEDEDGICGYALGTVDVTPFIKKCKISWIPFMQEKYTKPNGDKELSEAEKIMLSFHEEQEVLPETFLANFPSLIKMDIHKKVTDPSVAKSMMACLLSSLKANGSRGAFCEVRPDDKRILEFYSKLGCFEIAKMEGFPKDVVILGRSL
As to the kind of experiment: Fluorescence-based enzymatic assay.

For experiment [1], the target named is Sigma non-opioid intracellular receptor 1 (Homo sapiens, UniProt Q99720). Particulars: Compound concentration 10.0 uM.
Chain of Sigma non-opioid intracellular receptor 1 (Q99720 whole entry): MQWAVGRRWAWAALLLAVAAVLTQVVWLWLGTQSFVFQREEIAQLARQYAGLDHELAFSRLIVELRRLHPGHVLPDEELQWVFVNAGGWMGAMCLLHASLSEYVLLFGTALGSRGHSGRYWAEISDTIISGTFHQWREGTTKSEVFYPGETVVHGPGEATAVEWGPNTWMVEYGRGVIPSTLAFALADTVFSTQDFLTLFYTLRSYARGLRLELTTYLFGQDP
The target in experiment [2] is Kappa-type opioid receptor (Homo sapiens, UniProt P41145). Particulars: Compound concentration 10.0 uM.
Chain of Kappa-type opioid receptor (P41145 whole entry): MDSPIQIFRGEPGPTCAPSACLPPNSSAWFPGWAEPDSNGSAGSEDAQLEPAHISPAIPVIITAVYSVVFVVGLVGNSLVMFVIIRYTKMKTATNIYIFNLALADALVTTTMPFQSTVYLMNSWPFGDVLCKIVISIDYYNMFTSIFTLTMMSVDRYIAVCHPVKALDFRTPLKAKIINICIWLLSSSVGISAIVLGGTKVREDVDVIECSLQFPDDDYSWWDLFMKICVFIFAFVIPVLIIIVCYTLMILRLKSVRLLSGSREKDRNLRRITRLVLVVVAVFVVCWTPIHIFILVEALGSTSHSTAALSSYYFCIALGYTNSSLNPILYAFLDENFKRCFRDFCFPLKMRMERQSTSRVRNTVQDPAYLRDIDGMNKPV
Experiment [3] concerns the target Muscarinic acetylcholine receptor M4 (Homo sapiens) (UniProt P08173). Particulars: Compound concentration 10.0 uM.
For experiment [4], the target named is 5-hydroxytryptamine receptor 1D (Homo sapiens) (UniProt P28221). The settings on record: Compound concentration 10.0 uM.
Chain of 5-hydroxytryptamine receptor 1D (Homo sapiens) (P28221 whole entry): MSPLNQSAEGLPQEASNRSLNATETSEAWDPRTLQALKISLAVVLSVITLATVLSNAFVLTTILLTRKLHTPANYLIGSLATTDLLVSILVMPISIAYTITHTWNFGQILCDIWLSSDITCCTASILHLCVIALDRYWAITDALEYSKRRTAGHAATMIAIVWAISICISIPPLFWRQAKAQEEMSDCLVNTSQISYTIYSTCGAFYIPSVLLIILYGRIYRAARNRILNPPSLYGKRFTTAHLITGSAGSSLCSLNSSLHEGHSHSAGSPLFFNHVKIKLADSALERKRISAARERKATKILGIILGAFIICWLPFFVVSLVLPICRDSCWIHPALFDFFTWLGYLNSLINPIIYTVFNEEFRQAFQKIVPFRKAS
In experiment [5] the target is D(4) dopamine receptor (Homo sapiens) (UniProt P21917). The settings on record: Compound concentration 10.0 uM.
Chain of D(4) dopamine receptor (Homo sapiens) (P21917 whole entry): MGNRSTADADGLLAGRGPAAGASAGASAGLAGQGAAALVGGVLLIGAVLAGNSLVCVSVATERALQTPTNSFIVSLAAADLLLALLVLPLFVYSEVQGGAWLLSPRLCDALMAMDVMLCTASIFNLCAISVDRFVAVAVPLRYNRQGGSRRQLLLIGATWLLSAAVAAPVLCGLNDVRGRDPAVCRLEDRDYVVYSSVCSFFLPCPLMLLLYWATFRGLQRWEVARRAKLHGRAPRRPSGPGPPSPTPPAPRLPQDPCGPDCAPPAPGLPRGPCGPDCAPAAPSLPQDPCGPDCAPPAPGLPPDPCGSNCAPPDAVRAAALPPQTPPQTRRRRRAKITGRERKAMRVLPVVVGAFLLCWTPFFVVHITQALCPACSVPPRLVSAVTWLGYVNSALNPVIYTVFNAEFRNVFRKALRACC
Experiment [6] addresses Beta-2 adrenergic receptor (Homo sapiens) (UniProt P07550). The settings on record: Compound concentration 10.0 uM.
For experiment [7], the target named is T2, Muscarinic acetylcholine receptor M1 (Homo sapiens) (UniProt P11229).
T2 sequence (whole entry): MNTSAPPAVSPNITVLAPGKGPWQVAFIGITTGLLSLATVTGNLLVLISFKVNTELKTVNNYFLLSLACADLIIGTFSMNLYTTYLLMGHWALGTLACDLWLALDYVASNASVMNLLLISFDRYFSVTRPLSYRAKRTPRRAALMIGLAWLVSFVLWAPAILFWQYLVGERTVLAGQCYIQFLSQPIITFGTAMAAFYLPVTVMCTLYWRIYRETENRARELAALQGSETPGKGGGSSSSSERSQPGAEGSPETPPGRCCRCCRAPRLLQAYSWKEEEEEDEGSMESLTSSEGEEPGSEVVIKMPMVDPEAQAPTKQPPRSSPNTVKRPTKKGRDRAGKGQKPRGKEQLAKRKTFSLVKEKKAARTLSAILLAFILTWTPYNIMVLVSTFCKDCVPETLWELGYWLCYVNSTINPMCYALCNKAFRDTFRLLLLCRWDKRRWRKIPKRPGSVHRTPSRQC
Particulars: Compound concentration 10.0 uM.

Experiment [8] addresses Muscarinic acetylcholine receptor M3 (Homo sapiens) (UniProt P20309). Particulars: Compound concentration 10.0 uM.
Experiment [9] deals with T3, Muscarinic acetylcholine receptor M2 (Homo sapiens) (UniProt P08172).
T3 sequence (whole entry): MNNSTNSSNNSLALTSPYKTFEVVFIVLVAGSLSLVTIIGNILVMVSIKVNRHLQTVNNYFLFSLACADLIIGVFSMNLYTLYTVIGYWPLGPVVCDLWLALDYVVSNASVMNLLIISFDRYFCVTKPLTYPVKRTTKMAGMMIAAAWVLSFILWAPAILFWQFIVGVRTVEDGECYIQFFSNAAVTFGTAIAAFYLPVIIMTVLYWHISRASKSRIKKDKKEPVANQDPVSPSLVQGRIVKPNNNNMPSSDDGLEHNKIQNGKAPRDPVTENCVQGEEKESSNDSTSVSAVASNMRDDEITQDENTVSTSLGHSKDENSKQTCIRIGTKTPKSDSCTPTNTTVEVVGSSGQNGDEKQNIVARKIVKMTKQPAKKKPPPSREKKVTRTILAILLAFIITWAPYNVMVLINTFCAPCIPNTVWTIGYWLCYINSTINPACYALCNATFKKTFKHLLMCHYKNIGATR
Particulars: Compound concentration 10.0 uM.

For experiment [10], the target named is Alpha-2C adrenergic receptor (Homo sapiens) (UniProt P18825). Particulars: Compound concentration 10.0 uM.
Chain of Alpha-2C adrenergic receptor (Homo sapiens) (P18825 whole entry): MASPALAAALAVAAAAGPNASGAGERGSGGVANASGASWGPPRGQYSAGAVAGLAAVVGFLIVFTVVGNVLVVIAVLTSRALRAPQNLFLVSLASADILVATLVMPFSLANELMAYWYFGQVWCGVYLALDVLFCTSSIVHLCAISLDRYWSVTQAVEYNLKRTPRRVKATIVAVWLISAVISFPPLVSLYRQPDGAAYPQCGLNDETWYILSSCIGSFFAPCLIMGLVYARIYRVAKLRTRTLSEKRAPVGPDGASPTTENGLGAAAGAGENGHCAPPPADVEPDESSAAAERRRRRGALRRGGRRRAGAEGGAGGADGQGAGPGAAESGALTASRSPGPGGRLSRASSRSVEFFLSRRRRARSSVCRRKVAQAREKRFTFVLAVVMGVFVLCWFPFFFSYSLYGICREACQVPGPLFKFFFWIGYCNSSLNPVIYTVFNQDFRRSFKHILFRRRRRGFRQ
The target of experiment [11] is T4, 5-hydroxytryptamine receptor 3A (Homo sapiens) (UniProt P46098).
T4 sequence (whole entry): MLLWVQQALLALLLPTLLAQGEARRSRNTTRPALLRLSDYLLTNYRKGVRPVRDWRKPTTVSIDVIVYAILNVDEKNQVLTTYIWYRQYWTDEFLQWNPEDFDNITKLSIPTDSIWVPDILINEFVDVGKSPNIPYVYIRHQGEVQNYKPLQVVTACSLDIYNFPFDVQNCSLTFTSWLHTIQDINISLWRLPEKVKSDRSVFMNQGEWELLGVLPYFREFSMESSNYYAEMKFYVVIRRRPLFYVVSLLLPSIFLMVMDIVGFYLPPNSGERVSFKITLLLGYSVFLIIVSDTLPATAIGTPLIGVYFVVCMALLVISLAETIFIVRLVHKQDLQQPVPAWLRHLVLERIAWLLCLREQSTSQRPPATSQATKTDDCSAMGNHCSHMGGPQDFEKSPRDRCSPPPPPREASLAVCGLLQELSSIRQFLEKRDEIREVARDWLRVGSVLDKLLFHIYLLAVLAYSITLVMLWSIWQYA
Particulars: Compound concentration 10.0 uM.

Experiment [12] concerns the target Mu-type opioid receptor (Homo sapiens) (UniProt P35372). The settings on record: Compound concentration 10.0 uM.
Experiment [13] concerns the target 5-hydroxytryptamine receptor 1B (Homo sapiens) (UniProt P28222). Particulars: Compound concentration 10.0 uM.
The target of experiment [14] is Alpha-1A adrenergic receptor (Homo sapiens) (UniProt P35348). Particulars: Compound concentration 10.0 uM.
Chain of Alpha-1A adrenergic receptor (Homo sapiens) (P35348 whole entry): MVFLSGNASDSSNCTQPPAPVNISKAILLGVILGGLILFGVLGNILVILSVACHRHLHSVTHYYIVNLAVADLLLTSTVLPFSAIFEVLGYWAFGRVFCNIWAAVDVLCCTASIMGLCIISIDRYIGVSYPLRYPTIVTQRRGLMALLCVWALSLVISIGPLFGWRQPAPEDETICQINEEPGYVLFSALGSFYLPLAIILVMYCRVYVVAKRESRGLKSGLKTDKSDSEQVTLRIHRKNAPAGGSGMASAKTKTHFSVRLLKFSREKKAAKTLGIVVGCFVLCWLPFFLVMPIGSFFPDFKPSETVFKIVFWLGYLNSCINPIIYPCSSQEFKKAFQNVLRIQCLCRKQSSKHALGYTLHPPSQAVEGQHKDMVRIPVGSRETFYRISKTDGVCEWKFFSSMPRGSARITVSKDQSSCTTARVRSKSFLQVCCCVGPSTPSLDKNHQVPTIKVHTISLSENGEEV

IC50 and inhibition data for two molecules are collected here from ChEMBL document CHEMBL4800731, “Data for DCP probe JNJ-65355394” (2021).

Structures are written as SMILES. Calls of active or inactive are those of the source. No cut-off for these calls is given here.

One may read the IC50 as the concentration that gives 50% inhibition. Broadly, the inhibition is the drop in the measured response relative to a control, in per cent.

Chain of Muscarinic acetylcholine receptor M4 (Homo sapiens) (P08173 whole entry): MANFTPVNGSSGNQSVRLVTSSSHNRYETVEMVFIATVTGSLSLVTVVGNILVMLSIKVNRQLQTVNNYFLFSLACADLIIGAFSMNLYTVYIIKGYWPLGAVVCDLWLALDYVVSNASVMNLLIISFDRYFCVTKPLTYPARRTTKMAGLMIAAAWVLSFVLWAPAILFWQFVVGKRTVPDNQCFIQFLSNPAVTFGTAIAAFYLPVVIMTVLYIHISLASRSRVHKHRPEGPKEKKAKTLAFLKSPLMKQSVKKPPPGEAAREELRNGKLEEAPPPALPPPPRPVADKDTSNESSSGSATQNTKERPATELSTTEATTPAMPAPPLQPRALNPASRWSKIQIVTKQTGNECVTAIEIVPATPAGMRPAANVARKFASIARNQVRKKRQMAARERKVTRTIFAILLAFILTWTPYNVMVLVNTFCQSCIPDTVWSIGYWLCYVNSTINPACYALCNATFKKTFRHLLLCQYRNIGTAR
Chain of Muscarinic acetylcholine receptor M3 (Homo sapiens) (P20309 whole entry, looked up): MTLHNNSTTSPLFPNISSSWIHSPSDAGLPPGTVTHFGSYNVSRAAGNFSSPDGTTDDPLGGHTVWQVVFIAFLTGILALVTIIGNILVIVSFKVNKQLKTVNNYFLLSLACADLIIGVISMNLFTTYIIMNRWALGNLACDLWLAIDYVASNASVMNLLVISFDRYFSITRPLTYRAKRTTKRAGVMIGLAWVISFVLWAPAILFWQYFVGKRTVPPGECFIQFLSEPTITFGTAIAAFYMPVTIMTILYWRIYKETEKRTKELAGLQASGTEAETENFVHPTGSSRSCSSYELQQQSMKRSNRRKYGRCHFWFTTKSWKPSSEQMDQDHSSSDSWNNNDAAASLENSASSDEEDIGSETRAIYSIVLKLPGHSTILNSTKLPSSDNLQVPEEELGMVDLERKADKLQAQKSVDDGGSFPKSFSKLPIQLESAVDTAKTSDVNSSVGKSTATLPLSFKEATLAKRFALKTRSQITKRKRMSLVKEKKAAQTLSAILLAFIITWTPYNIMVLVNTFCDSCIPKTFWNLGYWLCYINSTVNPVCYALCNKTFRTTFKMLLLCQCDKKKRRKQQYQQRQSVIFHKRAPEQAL
Chain of Beta-2 adrenergic receptor (Homo sapiens) (P07550 whole entry, looked up): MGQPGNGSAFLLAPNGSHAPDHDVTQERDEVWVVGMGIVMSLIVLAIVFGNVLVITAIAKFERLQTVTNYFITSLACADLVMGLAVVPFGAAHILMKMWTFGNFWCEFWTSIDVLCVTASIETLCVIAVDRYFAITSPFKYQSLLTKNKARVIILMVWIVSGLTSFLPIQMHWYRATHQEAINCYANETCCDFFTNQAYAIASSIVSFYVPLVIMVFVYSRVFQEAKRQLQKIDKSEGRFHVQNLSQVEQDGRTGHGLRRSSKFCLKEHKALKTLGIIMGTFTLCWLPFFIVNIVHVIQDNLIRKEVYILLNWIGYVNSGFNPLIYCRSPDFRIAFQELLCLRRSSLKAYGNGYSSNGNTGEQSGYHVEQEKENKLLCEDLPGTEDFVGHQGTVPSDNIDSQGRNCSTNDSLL
Chain of Mu-type opioid receptor (Homo sapiens) (P35372 whole entry): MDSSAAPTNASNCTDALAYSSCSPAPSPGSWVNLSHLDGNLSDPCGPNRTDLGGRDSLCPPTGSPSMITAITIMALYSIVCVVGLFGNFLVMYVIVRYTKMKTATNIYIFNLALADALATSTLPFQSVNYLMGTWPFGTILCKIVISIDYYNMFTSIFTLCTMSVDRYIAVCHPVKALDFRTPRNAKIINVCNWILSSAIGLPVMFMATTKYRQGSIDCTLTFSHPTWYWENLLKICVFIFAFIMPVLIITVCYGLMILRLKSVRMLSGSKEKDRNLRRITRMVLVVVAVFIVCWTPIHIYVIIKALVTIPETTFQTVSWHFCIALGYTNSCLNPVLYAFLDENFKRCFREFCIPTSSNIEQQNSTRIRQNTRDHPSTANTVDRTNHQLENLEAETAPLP
Chain of 5-hydroxytryptamine receptor 1B (Homo sapiens) (P28222 whole entry): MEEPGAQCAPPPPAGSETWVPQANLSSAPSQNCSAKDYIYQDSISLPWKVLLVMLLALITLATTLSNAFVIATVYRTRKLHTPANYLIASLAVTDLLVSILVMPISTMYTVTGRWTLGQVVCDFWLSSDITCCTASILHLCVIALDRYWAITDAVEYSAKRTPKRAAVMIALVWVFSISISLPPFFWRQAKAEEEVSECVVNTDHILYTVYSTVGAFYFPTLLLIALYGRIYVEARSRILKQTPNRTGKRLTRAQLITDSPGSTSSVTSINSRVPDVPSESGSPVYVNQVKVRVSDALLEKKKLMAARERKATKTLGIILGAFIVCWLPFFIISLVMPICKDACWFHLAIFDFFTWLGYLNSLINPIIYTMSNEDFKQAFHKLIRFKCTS

For `CC(=O)Nc1ncc(CN2CCC[C@H](Cc3cc(C)nc(C)c3)C2)s1` [JNJ-65355394], the 50% inhibitory concentration (IC50) on Protein O-GlcNAcase was 0.0013 µM (active). In addition, the inhibition in experiment [1] was 46.5%; in experiment [2] it was 75.1%; in experiment [3], -5.53%; in [4] it was 11.6%; in experiment [5], 3.53%; in experiment [6] it was -5.16%. Also, the inhibition was 6.18% in [7]; 8.4% in experiment [8]; 9.54% in experiment [9]; 31.9% in experiment [10]; 6.87% in experiment [11]; 12.8% in [12]. The inhibition in experiment [13] was -2.53%; in [14], 2.36%.

As for `CC(=O)Nc1nc(CN2CCC[C@H](Cc3cc(C)nc(C)c3)C2)cs1` [JNJ-73924149], on Protein O-GlcNAcase, the 50% inhibitory concentration (IC50) was > 10 µM (not active). In addition, the inhibition was 101% in experiment [1]; 17.9% in experiment [2]; 8.78% in [3]; 14.5% in [4]; 6.82% in experiment [5]; -8.1% in experiment [6]. The inhibition in [7] was 25.4%; in experiment [8], -9.98%; in experiment [9], 8.65%; in experiment [10], 36.5%; in [11], 20.7%; in experiment [12] it was 27.3%. In addition, the results for the inhibition in [13] and in experiment [14] were 4.01% and -1.89%, respectively.
